One assay concerns the target T1, hLAT1 (Homo sapiens, UniProt Q01650).
T1 construct: expressed in transfected cells; host or cells: LLCPK cells, tetracycline/doxycycline-inducible, boosted with sodium butyrate
The assay can be described thus: LAT1 uptake inhibition assay, radiolabeled competition uptake with [3H]-Gabapentin. It is filed as cell-based.

For the next assay, the target named is T2, hLAT2 (Homo sapiens, UniProt Q9UHI5).
T2 construct: expressed in transfected cells; host or cells: KB or LLCPK cells, tetracycline/doxycycline-inducible
T2 sequence (Q9UHI5 1-535): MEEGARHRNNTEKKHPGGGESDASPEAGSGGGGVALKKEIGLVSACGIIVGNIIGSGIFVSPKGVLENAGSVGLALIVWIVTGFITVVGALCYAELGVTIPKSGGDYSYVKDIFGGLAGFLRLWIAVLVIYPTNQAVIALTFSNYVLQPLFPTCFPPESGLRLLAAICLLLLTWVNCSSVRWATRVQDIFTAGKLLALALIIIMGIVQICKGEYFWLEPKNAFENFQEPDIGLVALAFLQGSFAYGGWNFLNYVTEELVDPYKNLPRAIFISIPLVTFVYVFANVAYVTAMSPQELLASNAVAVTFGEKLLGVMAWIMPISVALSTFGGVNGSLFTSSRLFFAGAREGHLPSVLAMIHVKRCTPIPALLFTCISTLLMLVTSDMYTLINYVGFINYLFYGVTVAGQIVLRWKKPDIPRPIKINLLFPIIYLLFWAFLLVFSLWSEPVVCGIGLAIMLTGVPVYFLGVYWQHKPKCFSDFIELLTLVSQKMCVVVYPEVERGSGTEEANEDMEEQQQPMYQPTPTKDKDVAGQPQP
T2 sequence (P08195 1-630 isoform P08195-1 partner): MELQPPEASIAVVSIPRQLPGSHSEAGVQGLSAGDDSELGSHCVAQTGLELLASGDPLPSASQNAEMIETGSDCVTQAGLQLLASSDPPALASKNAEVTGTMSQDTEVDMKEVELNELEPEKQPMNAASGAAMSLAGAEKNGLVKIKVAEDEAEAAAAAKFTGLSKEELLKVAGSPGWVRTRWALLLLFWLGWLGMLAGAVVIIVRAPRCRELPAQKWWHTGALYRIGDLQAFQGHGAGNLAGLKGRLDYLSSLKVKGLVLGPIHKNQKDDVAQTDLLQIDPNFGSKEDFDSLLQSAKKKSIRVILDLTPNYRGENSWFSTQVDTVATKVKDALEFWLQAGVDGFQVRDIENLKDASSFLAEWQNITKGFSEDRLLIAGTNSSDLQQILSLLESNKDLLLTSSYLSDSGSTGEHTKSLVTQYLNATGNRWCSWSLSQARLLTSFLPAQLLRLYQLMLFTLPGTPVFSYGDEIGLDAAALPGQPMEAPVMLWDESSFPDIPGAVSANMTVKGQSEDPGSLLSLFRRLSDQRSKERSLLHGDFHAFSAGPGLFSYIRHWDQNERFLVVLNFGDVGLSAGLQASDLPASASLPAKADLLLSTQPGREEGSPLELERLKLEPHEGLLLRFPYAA
Briefly: LAT2 uptake inhibition assay, radiolabeled competition uptake with [3H]-leucine. It is filed as cell-based.

Assay [1] deals with LLCPK cells conditionally expressing hLAT1. Briefly: cells. Conditions: 0.5 h, read-out: LC50, concentration of test compound at which the percent surviving cells was 50%.
Where [2] appears, read: LAT1-expressing cells, increasing concentration of test compound, read-out: IC50, concentration of test compound at which the [3H]-GP was inhibited by 50%.
Setting [3] is: KB cells, read-out: IC50, concentration of test compound at which the [3H]-Leu was inhibited by 50%.

Structures are written as SMILES. Read-outs that look alike come from different tables or passages of the source.

Experimental findings from patent publication US10017459B2, “β-substituted β-amino acids and analogs as chemotherapeutic agents and uses thereof” (Quadriga Biosciences, Inc., priority 2015, dated 2018) are described below.

T1 sequence (Q01650 whole entry, one chain of several): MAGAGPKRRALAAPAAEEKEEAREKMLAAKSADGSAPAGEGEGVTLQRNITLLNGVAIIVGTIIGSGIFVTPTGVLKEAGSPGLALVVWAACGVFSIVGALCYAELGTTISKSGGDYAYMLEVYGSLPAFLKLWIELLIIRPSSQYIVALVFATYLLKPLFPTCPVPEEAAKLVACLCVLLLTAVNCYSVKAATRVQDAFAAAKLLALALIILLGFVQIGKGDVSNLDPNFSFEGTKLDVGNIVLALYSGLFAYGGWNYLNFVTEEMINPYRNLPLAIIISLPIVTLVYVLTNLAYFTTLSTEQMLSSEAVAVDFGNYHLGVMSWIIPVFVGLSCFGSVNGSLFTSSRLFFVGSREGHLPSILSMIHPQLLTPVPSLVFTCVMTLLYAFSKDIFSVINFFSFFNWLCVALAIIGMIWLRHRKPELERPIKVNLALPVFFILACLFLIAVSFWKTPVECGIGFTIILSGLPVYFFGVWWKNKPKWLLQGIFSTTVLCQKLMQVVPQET

Take `Cc1ccc(CON(CCCl)CCCl)cc1C[C@H](N)CC(=O)O` [Compound 32, (3S)-3-Amino-4-[5-[bis(2-chloroethyl)aminooxymethyl]-2-methyl-phenyl]butanoic Acid]: the IC50 at hLAT1 and at hLAT2 was below 100 µM in each case.

On to `Cc1ccc(CBr)cc1C[C@H](N)CC(=O)O` [Compound 57, (3S)-3-amino-4-[5-(bromomethyl)-2-methyl-phenyl]butanoic acid], for which the IC50 at hLAT1 (setting [2]) and on hLAT2 (setting [3]) was below 100 µM each time. For `Cc1ccc(N(CCCl)CCCl)cc1NC(=O)[C@H](N)CC(=O)O` [Compound 22, (3R)-3-Amino-4-[[5-[bis(2-chloroethyl)amino]-2-methyl-phenyl]amino]-4-oxo-butanoic Acid], the IC50 at hLAT2 was below 100 µM. Further, in assay [1], the CC50 is below 1 µM. In the same order, the values of `N[C@H](CC(=O)O)Cc1cc(N(CCCl)CCCl)ccc1N(CCCl)CCCl` [Compound 53, (3S)-3-amino-4-[2,5-bis[bis(2-chloroethyl)amino]phenyl]butanoic acid] are below 100 µM and below 1 µM.

The molecule `Cc1ccc(N(CCBr)CCOS(C)(=O)=O)cc1C[C@H](N)CC(=O)O` [Compound 20, (3S)-3-Amino-4-[5-(2-bromoethyl(2-methylsulfonyloxyethyl)amino)-2-methyl-phenyl]butanoic Acid] registered an IC50 on hLAT2 below 100 µM. On to `CC(C)Oc1ccc(N(CCCl)CCCl)cc1C[C@H](N)CC(=O)O` [Compound 43, (3S)-3-amino-4-[5-[bis(2-chloroethyl)amino]-2-isopropoxy-phenyl]butanoic acid], for which the IC50 at hLAT1 and on hLAT2 was below 100 µM in each case. Further, in assay [1], the CC50 was below 1 µM.

With `Cc1ccc(OC(=O)N(CCCl)CCCl)cc1C[C@H](N)CC(=O)O` [Compound 29, (3S)-3-Amino-4-[5-[bis(2-chloroethyl)carbamoyloxy]-2-methyl-phenyl]butanoic Acid], the IC50 at hLAT1 was below 100 µM. Consider `Cc1ccc(C(=O)N[C@@H](CC(C)C)C(=O)C2(C)CO2)cc1C[C@H](N)CC(=O)O` (stereo in doubt) [Compound 63, (3S)-3-amino-4-[2-methyl-5-[[(1S)-3-methyl-1-[(2R)-2-methyloxirane-2-carbonyl]butyl]carbamoyl]phenyl]butanoic acid], for which the IC50 at hLAT1 (setting [2]) and on hLAT2 (setting [3]) was below 100 µM each time. With `Cc1cc(N(CCCl)CCCl)ccc1OC[C@H](N)CC(=O)O` [Compound 27, (3R)-3-Amino-4-[4-[bis(2-chloroethyl)amino]-2-methyl-phenoxy]butanoic Acid], the CC50 in assay [1] was below 1 µM. On hLAT2, `Cc1ccc(NCCCl)cc1C[C@H](N)CC(=O)O` [Compound 54, (3S)-3-amino-4-[5-(2-chloroethylamino]-2-methyl-phenyl]butanoic acid] showed an IC50 below 100 µM. As to `N[C@H](CC(=O)O)Cc1cc(CON(CCCl)CCCl)ccc1[N+](=O)[O-]` [Compound 45, (3S)-3-amino-4-[5-[bis(2-chloroethyl)aminooxymethyl]-2-nitro-phenyl]butanoic acid], the IC50 on hLAT1 and at hLAT2 was below 100 µM each time.

On to `Cc1ccc(N(CCCl)CCCl)cc1CC(N)CC(=O)O` (racemic) [Compound 3, 3-Amino-4-[5-[bis(2-chloroethyl)amino]-2-methyl-phenyl]butanoic Acid], for which the CC50 in assay [1] was below 1 µM.

In turn, `Cc1ccc(N(CCO)CCCl)cc1C[C@H](N)CC(=O)O` [Compound 58, (3S)-3-amino-4-[5-(2-chloroethyl(2-hydroxyethyl)amino)-2-methyl-phenyl]butanoic acid] yielded an IC50 on hLAT1 below 100 µM. The same measure, in the same setting: next, `N[C@@H](COc1cccc(N(CCCl)CCCl)c1)CC(=O)O` [Compound 68, (3R)-3-amino-4-[3-[bis(2-chloroethyl)amino]phenoxy]butanoic acid]: below 100 µM; `Cc1ccc(COC(=O)N(CCCl)CCCl)cc1C[C@H](N)CC(=O)O` [Compound 30, (3S)-3-Amino-4-[5-[bis(2-chloroethyl)carbamoyloxymethyl]-2-methyl-phenyl]butanoic Acid]: below 100 µM.

As for `N[C@H](CC(=O)O)Cc1cc(CO)ccc1N(CCCl)CCCl` [Compound 52, (3S)-3-amino-4-[2-[bis(2-chloroethyl)amino]-5-(hydroxymethyl)phenyl]butanoic acid], the IC50 at hLAT2 is below 100 µM. Also, the CC50 in assay [1] is below 1 µM. On to `CCOc1ccc(N(CCCl)CCCl)cc1C[C@H](N)CC(=O)O` [Compound 42, (3S)-3-amino-4-[5-[bis(2-chloroethyl)amino]-2-ethoxy-phenyl]butanoic acid], for which the IC50 at hLAT1 and on hLAT2 was below 100 µM in each case. Moreover, the CC50 in assay [1] is below 1 µM. As for `COc1ccc(N(CCO)CCCl)cc1C[C@H](N)CC(=O)O` [Compound 60, (3S)-3-amino-4-[5-(2-chloroethyl (2-hydroxyethyl)amino)-2-methoxy-phenyl]butanoic acid], the IC50 at hLAT1 and at hLAT2 was below 100 µM in each case.

On to `N[C@@H](COc1ccc(N(CCCl)CCCl)cc1)CC(=O)O` [Compound 69, (3R)-3-amino-4-[4-[bis(2-chloroethyl)amino]phenoxy]butanoic acid], for which the IC50 on hLAT1 was below 100 µM.
